Experimental data published in the NIST ThermoML archive (doi:10.1021/je401095k).
Numbers after ± are expanded uncertainties.

Experiments:
[1] = refractive index (Na D-line) (dimensionless); conditions: 293.2 K; 101.33 kPa; Liquid; Standard Abbe refractometry
[2] = 293.2 K; 101.33 kPa; Liquid; Vibrating tube method

Row | SMILES | refractive index [1] | mass density [2] [kg/m3]
1 | CC(=O)CCC(C)C [5-methyl-2-hexanone] | 1.4051 ± 0.0008 | 887.92 ± 0.24
2 | CC(=O)OCCC(C)C [3-methylbutyl ethanoate] | 1.3976 ± 0.0008 | 866.71 ± 0.24
3 | O=CO [formic acid] | 1.371 ± 0.0008 | 1219.5 ± 0.42
4 | CCCC(=O)O [butanoic acid] | 1.3977 ± 0.0008 | 952.68 ± 0.23
5 | O [water] | 1.3324 ± 0.0008 | –
